In US9056858B2, “Indazole and pyrazolopyridine compounds as CCR1 receptor antagonists” (Boehringer Ingelheim International GmbH, priority 2009, dated 2015):

Target: T1, CCR1 (Homo sapiens, UniProt P32246)
T1 construct: host or cells: Non-adherent cells
T1 sequence (P32246 1-355): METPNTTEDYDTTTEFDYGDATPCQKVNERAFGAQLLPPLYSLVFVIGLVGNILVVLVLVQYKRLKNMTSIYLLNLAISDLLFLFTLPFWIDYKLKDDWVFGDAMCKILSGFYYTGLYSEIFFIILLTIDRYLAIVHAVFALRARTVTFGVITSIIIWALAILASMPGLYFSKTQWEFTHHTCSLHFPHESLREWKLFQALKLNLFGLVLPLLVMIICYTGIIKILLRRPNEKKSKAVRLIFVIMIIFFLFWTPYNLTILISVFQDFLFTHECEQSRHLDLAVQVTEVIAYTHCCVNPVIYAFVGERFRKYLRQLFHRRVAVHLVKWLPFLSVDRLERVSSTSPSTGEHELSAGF
Assay: functional cellular assay measuring calcium flux in CCR1 transfected cells (block of CCR1/MIP-1α interaction)
Assay type: cell-based
Settings: cells stably expressing recombinant CCR1 and G-alpha-16, MIP-1alpha added at EC80
Experimental: Compounds are assessed for the ability to block the interaction of CCR1 and MIP-1α in a functional cellular assay measuring calcium flux in CCR1 transfected cells.
Non-adherent cells purchased from Chemicon Corporation (HTS005C), stably expressing recombinant CCR1 and G-alpha-16 are grown in RPMI 1640 medium (Mediatech 10-080-CM) supplemented with 10% FBS, 0.4 mg/mL Geneticin and penicillin/streptomycin. On the day of the assay, the cells are loaded with Calcium 4 dye (Molecular Devices R7448) with Probenecid (Invitrogen P346400) at 8E5 cells/mL for 1 hour at room temperature. After 1 hour, they are seeded in a 384-well tissue culture-treated plate at a density of 20,000 cells/well. Appropriately diluted test compound is added to the well to achieve a top concentration of 3,000 nM (diluted 4-fold with 10 doses total). The final concentration of DMSO is 1%. The buffer is HBSS (Invitrogen 14025) with 20 mM HEPES at pH 7.4. The cells incubate 30 minutes at 37 C and then 30 minutes at room temperature. The plates are transferred to the […] FDSS6000 where MIP-1alpha in 1% BSA is added at the EC80 final concentration. All plates must be read within 4 hours of the start of dye-loading. Wells +/− MIP-1alpha containing diluted DMSO instead of compound serve as the controls. Data are analyzed using Activity Base software.

SMILES | IC50 [nM]
NS(=O)(=O)c1ccc(C2(NC(=O)c3cncc4c3cnn4-c3ccc(F)cc3)CC2)cn1 [1-(4-Fluoro-phenyl)-1H-pyrazolo[3,4-c]pyridine-4-carboxylic acid [1-(6-sulfamoyl-pyridin-3-yl)-cyclopropyl]-amide] | 5
NC(=O)CNC(=O)c1cccc(C2(NC(=O)c3cncc4c3cnn4-c3ccc(F)cc3)CC2)c1 [1-(4-Fluoro-phenyl)-1H-pyrazolo[3,4-c]pyridine-4-carboxylic acid {1-[3-(carbamoylmethyl-carbamoyl)-phenyl]-cyclopropyl}-amide] | 74
N#CCNC(=O)c1cccc(C2(NC(=O)c3cncc4c3cnn4-c3ccc(F)cc3)CC2)c1 [1-(4-Fluoro-phenyl)-1H-pyrazolo[3,4-c]pyridine-4-carboxylic acid {1-[3-(cyanomethyl-carbamoyl)-phenyl]-cyclopropyl}-amide] | 35
CNC(=O)CNC(=O)c1cccc(C2(NC(=O)c3cncc4c3cnn4-c3ccc(F)cc3)CC2)c1 [1-(4-Fluoro-phenyl)-1H-pyrazolo[3,4-c]pyridine-4-carboxylic acid {1-[3-(methylcarbamoylmethyl-carbamoyl)-phenyl]-cyclopropyl}-amide] | 78
CC(=O)N(C)c1ccc(C2(NC(=O)c3cncc4c3cnn4-c3ccc(F)cc3)CC2)cn1 [1-(4-Fluoro-phenyl)-1H-pyrazolo[3,4-c]pyridine-4-carboxylic acid {1-[6-(acetyl-methyl-amino)-pyridin-3-yl]-cyclopropyl}-amide] | 20
CS(=O)(=O)c1cc(C2(NC(=O)c3cc(I)cc4c3cnn4-c3ccc(F)cc3)CC2)ccn1 [1-(4-Fluoro-phenyl)-6-iodo-1H-indazole-4-carboxylic acid [1-(2-methanesulfonyl-pyridin-4-yl)-cyclopropyl]-amide] | 13
CS(=O)(=O)c1cc(C(=O)NC2(c3ccnc(S(C)(=O)=O)c3)CC2)c2cnn(-c3ccc(F)cc3)c2c1 [1-(4-Fluoro-phenyl)-6-methanesulfonyl-1H-indazole-4-carboxylic acid [1-(2-methanesulfonyl-pyridin-4-yl)-cyclopropyl]-amide] | 7
COC(=O)C1(NC(=O)c2cccc(C3(NC(=O)c4cncc5c4cnn5-c4ccc(F)cc4)CC3)c2)CC1 [1-[3-(1-{[1-(4-Fluoro-phenyl)-1H-pyrazolo[3,4-c]pyridine-4-carbonyl]-amino}-cyclopropyl)-benzoylamino]-cyclopropanecarboxylic acid methyl ester] | 98
COC(=O)c1cccc(C2(NC(=O)c3cncc4c3cnn4-c3ccc(F)cc3)CC2)c1 [3-(1-{[1-(4-Fluoro-phenyl)-1H-pyrazolo[3,4-c]pyridine-4-carbonyl]-amino}-cyclopropyl)-benzoic acid methyl ester] | 11
O=C(O)c1cccc(C2(NC(=O)c3cncc4c3cnn4-c3ccc(F)cc3)CC2)c1 [3-(1-{[1-(4-Fluoro-phenyl)-1H-pyrazolo[3,4-c]pyridine-4-carbonyl]-amino}-cyclopropyl)-benzoic acid] | 27
COC(=O)CCS(=O)(=O)c1cccc(C2(NC(=O)c3cncc4c3cnn4-c3ccc(F)cc3)CC2)c1 [3-[3-(1-{[1-(4-Fluoro-phenyl)-1H-pyrazolo[3,4-c]pyridine-4-carbonyl]-amino}-cyclopropyl)-benzenesulfonyl]-propionic acid methyl ester] | 17
COC(=O)CCS(=O)(=O)c1ccc(C2(NC(=O)c3cncc4c3cnn4-c3ccc(F)cc3)CC2)cn1 [3-[5-(1-{[1-(4-Fluoro-phenyl)-1H-pyrazolo[3,4-c]pyridine-4-carbonyl]-amino}-cyclopropyl)-pyridine-2-sulfonyl]-propionic acid methyl ester] | 10
O=C(O)c1ccc(C2(NC(=O)c3cncc4c3cnn4-c3ccc(F)cc3)CC2)cc1 [4-(1-{[1-(4-Fluoro-phenyl)-1H-pyrazolo[3,4-c]pyridine-4-carbonyl]-amino}-cyclopropyl)-benzoic acid] | 69
CS(=O)(=O)c1cc(C2(NC(=O)c3cc(Br)cc4c3cnn4-c3ccc(F)cc3)CC2)ccn1 [6-Bromo-1-(4-fluoro-phenyl)-1H-indazole-4-carboxylic acid [1-(2-methanesulfonyl-pyridin-4-yl)-cyclopropyl]-amide] | 2
CS(=O)(=O)c1cc(C2(NC(=O)c3cc(C#N)cc4c3cnn4-c3ccc(F)cc3)CC2)ccn1 [6-Cyano-1-(4-fluoro-phenyl)-1H-indazole-4-carboxylic acid [1-(2-methanesulfonyl-pyridin-4-yl)-cyclopropyl]-amide] | 0.1
COC(=O)[C@H](C)NC(=O)c1cccc(C2(NC(=O)c3cncc4c3cnn4-c3ccc(F)cc3)CC2)c1 [(S)-2-[3-(1-{[1-(4-Fluoro-phenyl)-1H-pyrazolo[3,4-c]pyridine-4-carbonyl]-amino}-cyclopropyl)-benzoylamino]-propionic acid methyl ester] | 80
CC(C)(C)OC(=O)NCc1ccnc(C2(NC(=O)c3cncc4c3cnn4-c3ccc(F)cc3)CC2)c1 [[2-(1-{[1-(4-Fluoro-phenyl)-1H-pyrazolo[3,4-c]pyridine-4-carbonyl]-amino}-cyclopropyl)-pyridin-4-ylmethyl]-carbamic acid tert-butyl ester] | 285
COC(=O)CNC(=O)c1cccc(C2(NC(=O)c3cncc4c3cnn4-c3ccc(F)cc3)CC2)c1 [[3-(1-{[1-(4-Fluoro-phenyl)-1H-pyrazolo[3,4-c]pyridine-4-carbonyl]-amino}-cyclopropyl)-benzoylamino]-acetic acid methyl ester] | 5
CC(C)(C)OC(=O)NCc1ccc(C2(NC(=O)c3cncc4c3cnn4-c3ccc(F)cc3)CC2)nc1 [[6-(1-{[1-(4-Fluoro-phenyl)-1H-pyrazolo[3,4-c]pyridine-4-carbonyl]-amino}-cyclopropyl)-pyridin-3-ylmethyl]-carbamic acid tert-butyl ester] | 81
